The source of these data is PMC3830479 (Journal of Experimental Botany, 2013).

Test [1] deals with T1, OsG6PDH1 (Oryza sativa, UniProt Q0DZS9).
T1 construct: gene Os02g0600400; coding region in pET32 (N-terminal fusion, His-tag), E. coli SoluBL21, HisTrap purified
T1 sequence (Q0DZS9 1-517): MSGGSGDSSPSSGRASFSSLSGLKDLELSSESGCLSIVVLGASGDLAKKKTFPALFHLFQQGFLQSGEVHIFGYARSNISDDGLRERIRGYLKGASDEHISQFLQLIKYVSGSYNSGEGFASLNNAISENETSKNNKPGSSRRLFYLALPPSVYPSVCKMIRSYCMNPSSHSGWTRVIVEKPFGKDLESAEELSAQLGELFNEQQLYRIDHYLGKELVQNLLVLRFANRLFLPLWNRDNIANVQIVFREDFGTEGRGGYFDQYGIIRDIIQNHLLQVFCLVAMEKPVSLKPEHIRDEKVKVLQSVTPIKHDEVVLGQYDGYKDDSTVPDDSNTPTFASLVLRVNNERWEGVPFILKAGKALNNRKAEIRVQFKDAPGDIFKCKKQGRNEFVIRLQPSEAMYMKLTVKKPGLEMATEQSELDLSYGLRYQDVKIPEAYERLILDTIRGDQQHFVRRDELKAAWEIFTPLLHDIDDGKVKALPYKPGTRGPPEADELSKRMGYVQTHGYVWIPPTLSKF
In words: inhibition of G6PDH activity. Particulars: feedback (product) inhibition. The test is classed as biochemical.

Test [2] deals with T2, OsG6PDH2 (Oryza sativa, UniProt Q7X7I6).
T2 construct: gene Os04g0485300; coding region in pET32 (N-terminal fusion, His-tag), E. coli SoluBL21, HisTrap purified
T2 sequence (Q7X7I6 1-505): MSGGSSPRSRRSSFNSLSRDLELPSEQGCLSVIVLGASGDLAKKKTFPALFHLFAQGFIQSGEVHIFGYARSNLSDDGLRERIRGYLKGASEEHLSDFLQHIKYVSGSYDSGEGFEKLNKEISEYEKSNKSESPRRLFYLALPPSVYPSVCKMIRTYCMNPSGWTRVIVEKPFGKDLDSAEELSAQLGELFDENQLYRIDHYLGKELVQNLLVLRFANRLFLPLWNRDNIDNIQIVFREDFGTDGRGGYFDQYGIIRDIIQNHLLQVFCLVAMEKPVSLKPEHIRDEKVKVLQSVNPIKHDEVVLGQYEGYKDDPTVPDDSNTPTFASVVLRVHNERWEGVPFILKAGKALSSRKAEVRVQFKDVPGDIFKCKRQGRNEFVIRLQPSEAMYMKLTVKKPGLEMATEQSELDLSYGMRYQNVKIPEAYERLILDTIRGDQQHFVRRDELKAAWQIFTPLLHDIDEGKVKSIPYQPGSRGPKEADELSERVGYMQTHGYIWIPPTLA
The experiment in a line: inhibition of G6PDH activity. The test is classed as biochemical. As to conditions: feedback (product) inhibition.

Test [3] has as its target T1, OsG6PDH1. Also on record: Recombinant G6PDH spectrophotometric assay at 340 nm with G6P, NADP+ reduction, 25 °C, pH 7.6. As to conditions: feedback inhibition, G6P/NADP+ assay; inhibitor; read-out: Ki NADPH. The procedure: (§1) The activity of recombinant rice G6PDHs was measured spectrophotometrically (340nm) at 25 °C by detecting NADP reduction via G6PDH reaction, which is coupled with G6P production, as described by [Wakao and Benning (2005)]. Reaction mixtures with 0.01–10mM G6P contained 0.2M TRIS (pH 7.6), NADP^+ (0.01–10mM), and MgCl2 (5mM). DTT (10mM) was incubated with the reaction mixture for 1h to test its activity. The DNA fragment containing the coding region of OsHXK5, OsHXK6, AlsK, OsG6PDH1, or OsG6PDH2 was subcloned in-frame into the pET32 vector (Novagen), and overexpressed in E. coli SoluBL21 (Genlantis, San Diego, CA, USA) according to the manufacturer’s instructions. The recombinant proteins were purified using a HisTrap HP column (GE Healthcare, Wauwatosa, WI, USA) as per the manufacturer’s instructions and dialysed against 0.2M TRIS-HCl buffer (pH 7.6) containing MgCl2 (5mM). Recombinant proteins of OsG6PDH1 and OsG6PDH2 had enzymatic activity with G6P and NADP^+, and OsG6PDH1 had higher activity based on k cat/K m values (Table 2). […] Neither enzyme used A6P as a substrate (Supplementary Table S3).

In test [4] the target is T2, OsG6PDH2. Also noted: Recombinant G6PDH spectrophotometric assay at 340 nm with G6P, NADP+ reduction, 25 °C, pH 7.6. As to conditions: feedback inhibition, G6P/NADP+ assay; inhibitor; read-out: Ki NADPH. How it is done:
as §1

SMILES strings stand for the structures.

For the compound `NC(=O)C1=CN([C@@H]2O[C@H](COP(=O)(O)OP(=O)(O)OC[C@H]3O[C@@H](n4cnc5c(N)ncnc54)[C@H](OP(=O)(O)O)[C@@H]3O)[C@@H](O)[C@H]2O)C=CC1` [NADPH], the “inhibition of G6PDH activity” value was “OsG6PDH1 and OsG6PDH2 suffered tight feedback inhibition by NADPH” at OsG6PDH1 [1]; “OsG6PDH1 and OsG6PDH2 suffered tight feedback inhibition by NADPH” against OsG6PDH2 [2]. The Ki on OsG6PDH1 [3] was 41.5 µM; on OsG6PDH2 [4], 30 µM.

The term Ki denotes the equilibrium dissociation constant of an inhibitor or competing ligand from its target.
